Measured values as given in patent publication US6083917A, “Methods and compositions for the identification, characterization and inhibition of farnesyltransferase” (Board of Regents, The University of Texas System, priority 1992, dated 2000).
pIC50: −log10 of the molar value. Residues, ends and D or L forms follow the SMILES beside them. No end group written: not given here. *: point of attachment. Octanoyl = CCCCCCCC(=O)*

These compounds were tested against T1, rat brain farnesyltransferase (Rattus norvegicus, UniProt Q02293+Q04631) (assay: Farnesyltransferase assay: transfer of [3H]farnesyl from [3H]FPP to p21H-ras (TCA filter assay), competition by peptides). Settings: Concentration giving 50% inhibition of farnesyltransferase (text, FIG. 14 / Table II), Example II; partially purified rat brain enzyme, p21H-ras acceptor.
T1 sequence (Q02293 whole entry, one chain of several): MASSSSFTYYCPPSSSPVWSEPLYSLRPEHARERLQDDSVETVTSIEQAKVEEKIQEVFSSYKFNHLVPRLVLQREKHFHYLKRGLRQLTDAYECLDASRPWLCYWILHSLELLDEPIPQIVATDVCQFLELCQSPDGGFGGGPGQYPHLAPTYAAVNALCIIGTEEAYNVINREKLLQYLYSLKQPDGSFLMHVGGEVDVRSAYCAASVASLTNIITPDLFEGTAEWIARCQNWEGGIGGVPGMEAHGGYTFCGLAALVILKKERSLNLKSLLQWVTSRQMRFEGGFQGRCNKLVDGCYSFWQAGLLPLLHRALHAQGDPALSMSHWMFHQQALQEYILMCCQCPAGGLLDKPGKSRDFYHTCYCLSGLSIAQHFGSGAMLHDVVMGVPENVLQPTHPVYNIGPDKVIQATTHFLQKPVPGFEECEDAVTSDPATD
Type: biochemical
Set-up: Brains from 50 male Sprague-Dawley rats (100-150 g) were homogenized; from tissue; host or cells: rat brain (male Sprague-Dawley rats)
Method: Farnesyltransferase activity was determined by measuring the amount of ^3 H-farnesol transferred from all-trans ^3 H]farnesyl pyrophosphate ([^3 H]FPP) to p21^H-ras protein. The standard reaction mixture contained the following concentrations of components in a final volume of 25 μl: 50 mM Tris-chloride (pH 7.5), 50 μM ZnCl2, 20 mM KCl, 1 mM DTT, and 40 μM p21^H-ras. The mixture also contained 10 pmoles of [^3 H]FPP (~30,000 dpm/pmol) and 1.8-3.5 μg of partially purified farnesyltransferase (see below). After incubation for 1 hour at 37° C. in 12×75-mm borosilicate tubes, the reaction was stopped by addition of 0.5 ml of 4% SDS and then 0.5 ml of 30% trichloroacetic acid (TCA).
The tubes were vortexed and left on ice for 45-60 min, after which 2 ml of a 6% TCA/2% SDS solution were added. The mixture was filtered on a 2.5-cm glass fiber filter with a Hoefer filtration unit (FH 225). The tubes were rinsed twice with 2 ml of the same solution, and each filter was washed five times with 2 ml of 6% TCA, dried, and counted in a scintillation counter. One unit of activity is defined as the amount of enzyme that transfers 1 pmol of [^3 H]farnesol from [^3 H]FPP into acid-precipitable p21^H-ras per hour under the standard conditions.
The standard assay involved measuring the amount of [^3 H]farnesyl transferred from all-trans [^3 H]FPP to recombinant human p21^H-ras as described in Example I. Each reaction mixture contained the following concentrations of components in a final volume of 25 μl: 50 mM Tris-chloride (pH 7.5), 50 μM ZnCl2, 30 mM KCl, 1 mM DTT, 30 or 40 μM p21^H-ras, 15 pmol [^3 H]FPP (12-23,000 dpm/pmol), 4 to 7.5 μg of partially purified farnesyltransferase (Mono Q fraction, see Example I), and the indicated concentration of competitor peptide added in 3 μl of 10 mM DTT. […] This blank value was subtracted before calculating "% of control" values.
The amount of [^3 H]farnesyl transferred from all-trans-[^3 H]farnesyl pyrophosphate to recombinant p21^H-ras was measured in a filter assay as previously described (62).
CC[C@H](C)[C@H](NC(=O)[C@H](C)NC(=O)[C@@H](N)CS)C(=O)N[C@@H](CCSC)C(=O)O [CAIM] (H-CAIM-OH) gave a pIC50 of 6.82.
CC[C@H](C)[C@H](NC(=O)[C@@H](NC(=O)[C@@H](N)CS)C(C)C)C(=O)N[C@@H](CCSC)C(=O)O [CVIM] (H-CVIM-OH) showed a pIC50 of 6.82.

Same assay, conditions: Table II; partially purified rat farnesyltransferase, p21H-ras acceptor; seven concentrations 0.03 to 100 μM; read-out: Concentration for 50% Inhibition
For CSCC[C@H](NC(=O)[C@@H](NC(=O)[C@@H](NC(=O)[C@@H](N)CS)C(C)C)C(C)C)C(=O)O [CVVM] (H-CVVM-OH), the pIC50 was 6.82.
Work on CC[C@H](C)[C@H](NC(=O)[C@@H](NC(=O)[C@@H](N)CS)[C@@H](C)CC)C(=O)N[C@@H](CCSC)C(=O)O [CIIM] (H-CIIM-OH) yielded a pIC50 of 6.82.
CC[C@H](C)[C@H](NC(=O)[C@H](C)NC(=O)[C@@H](N)CS)C(=O)N[C@@H](CCSC)C(=O)O [CAIM] (H-CAIM-OH) was tested, and the pIC50 was 6.82.
CC[C@H](C)[C@H](NC(=O)[C@H](CO)NC(=O)[C@@H](N)CS)C(=O)N[C@@H](CCSC)C(=O)O [CSIM] (H-CSIM-OH) gave a pIC50 of 6.70.
CC[C@H](C)[C@H](NC(=O)[C@@H](NC(=O)[C@@H](N)CS)C(C)C)C(=O)N[C@@H](CCSC)C(=O)O [CVIM] (H-CVIM-OH) showed a pIC50 of 6.82.

Same assay, conditions: Table III; six concentrations 0.03 to 10 μM; read-out: Concentration for 50% Inhibition of Farnesylation of p21H-ras
CC[C@H](C)[C@H](NC(=O)[C@@H](NC(=O)[C@H](CS)NC(C)=O)C(C)C)C(=O)N[C@@H](CCSC)C(=O)O [N-AcCVIM] (Ac-CVIM-OH) gave a pIC50 of 6.82.
In the case of Ac-HCVFM [N-AcHCVFM], the pIC50 was 6.62.
In the case of CSCC[C@H](NC(=O)[C@H](Cc1c[nH]c2ccccc12)NC(=O)[C@@H](NC(=O)[C@@H](N)CS)C(C)C)C(=O)O [CVWM] (H-CVWM-OH), the pIC50 was 6.49.
Ac-KCVFM [N-AcKCVFM] showed a pIC50 of 6.52.
CSCC[C@H](NC(=O)[C@H](Cc1ccccc1)NC(=O)[C@@H](NC(=O)[C@H](CS)NC(C)=O)C(C)C)C(=O)O [N-AcCVFM] (Ac-CVFM-OH) showed a pIC50 of 6.60.
For Ac-ECVFM [N-AcECVFM], the pIC50 was 5.62.
CC[C@H](C)[C@H](NC(=O)[C@@H](NC(=O)[C@@H](N)CS)C(C)C)C(=O)N[C@@H](CCSC)C(=O)O [CVIM] (H-CVIM-OH) showed a pIC50 of 6.82.
For Ac-GCVFM [N-AcGCVFM], the pIC50 was 6.37.
With Ac-MCVFM [N-AcMCVFM] the pIC50 was 5.85.
In the case of KCVFM [KCVFM], the pIC50 was 5.96.
With Ac-DCVFM [N-AcDCVFM] the pIC50 was 5.72.
CSCC[C@H](NC(=O)[C@H](Cc1ccccc1)NC(=O)[C@@H](NC(=O)[C@H](CS)NC(=O)[C@H](CS)NC(C)=O)C(C)C)C(=O)O [N-AcCCVFM] (Ac-CCVFM-OH) was tested, and the pIC50 was 6.96.
CSCC[C@H](NC(=O)[C@H](Cc1c[nH]c2ccccc12)NC(=O)[C@@H](NC(=O)[C@H](CS)NC(C)=O)C(C)C)C(=O)O [N-AcCVWM] (Ac-CVWM-OH) gave a pIC50 of 5.43.
Ac-SCVFM [N-AcSCVFM] gave a pIC50 of 6.64.
In the case of Ac-PCVFM [N-AcPCVFM], the pIC50 was 6.70.
Compound CCCCCCCC(=O)N[C@@H](CS)C(=O)N[C@H](C(=O)N[C@@H](Cc1ccccc1)C(=O)N[C@@H](CCSC)C(=O)O)C(C)C [N-Octanoyl-CVFM] (Octanoyl-CVFM-OH) has a pIC50 of 6.46.
For CSCC[C@H](NC(=O)[C@H](Cc1ccccc1)NC(=O)[C@@H](NC(=O)[C@H](CS)NC(=O)[C@@H](N)CS)C(C)C)C(=O)O [CCVFM] (H-CCVFM-OH), the pIC50 was 6.36.

Same assay, conditions: substrate saturation, FIG. 2A and 2B
With CC(C)=CCC/C(C)=C/CC/C(C)=C/COP(=O)(O)OP(=O)(O)O [[^3 H]farnesyl pyrophosphate, farnesyl pyrophosphate, reference compound] the “Concentration that gave half-maximal reaction velocity” value was “approximately 0.5 μM”.

These compounds were tested against T1, rat brain farnesyltransferase (assay: Binding of prenyl pyrophosphates to protein farnesyltransferase (gel filtration)). Settings: purified enzyme.
Set-up: Protein farnesyltransferase was purified to apparent homogeneity from rat brain homogenates; from tissue; host or cells: rat brain
Text: Transfer of the enzyme-bound farnesyl group to the bound p21^H-ras required Mg^2+. […] It also was not transferred to a modified p21^H-ras containing COOH-terminal leucine, a protein that was shown previously to be a good substrate for a rat brain geranylgeranyltransferase (35). The inventors conclude that the protein farnesyltransferase is a metalloenzyme that most likely contains Zn^2+ at the peptide-binding site. It thus resembles certain metallopeptidases, including carboxy-peptidase A and the angiotensin-converting enzyme. Strategies previously developed to screen for inhibitors of those enzymes will likely aid in the search for inhibitors of the protein farnesyltransferase.
CC(C)=CCC/C(C)=C/CC/C(C)=C/CC/C(C)=C/COP(=O)(O)OP(=O)(O)O [Geranylgeranyl pyrophosphate] was tested, and the “Affinity for the prenyl pyrophosphate binding site” value was “affinity equal to that of farnesyl pyrophosphate”.

What follows are compounds tested against T1, rat brain farnesyltransferase (assay: Farnesyltransferase assay: transfer of [3H]farnesyl from [3H]FPP to p21H-ras (TCA filter assay), competition by peptides). Settings: Concentration giving 50% inhibition of farnesylation of p21H-ras, FIG. 23A; Mono Q fraction, 0.5 μM [3H]farnesyl pyrophosphate, 30 min at 37° C.
Type: biochemical
Set-up: Brains from 50 male Sprague-Dawley rats (100-150 g) were homogenized; from tissue; host or cells: rat brain (male Sprague-Dawley rats)
CSCC[C@H](NC(=O)[C@H](Cc1ccccc1)NC(=O)[C@@H](NC(=O)[C@H](CS)NC(C)=O)C(C)C)C(=O)O [N-AcCVFM] (Ac-CVFM-OH) was tested, and the pIC50 was 6.57.
